Experimental data as given in patent US9957257B2, “Amide compounds as 5-HT4 receptor agonists” (SUVEN LIFE SCIENCES LIMITED, priority 2015, dated 2018).
Values joined by “and” are separate entries in the source; they are usually repeats but may differ in a detail not shown here. Identical values can stand only once. Counter-ions that a name gives are not always drawn.

Key:
[1] = biological target: T1, recombinant human 5-HT4 receptor (Homo sapiens, UniProt Q13639); assay: Determination of EC50 values for 5-HT4 receptor (CHO cells, pCRE-Luc reporter); assay type: cell-based; settings: luciferase reporter, 4 hours incubation, read-out: 5-HT4 receptor agonistic binding in-vitro EC50
T1 construct: expressed in transfected cells
Procedure: A stable CHO cell line expressing recombinant human 5-HT4 receptor and pCRE-Luc reporter system was used for cell-based assay. The assay offers a non-radioactive based approach to determine binding of a compound to GPCRs. In this specific assay, the level of intracellular cyclic AMP, which is modulated by activation, or inhibition of the receptor is measured. The recombinant cells harbor luciferase reporter gene under the control of cAMP response element.
The above cells were grown in 96 well clear bottom white plates in Hams F12 medium containing 10% fetal bovine serum (FBS). Prior to the addition of compounds or standard agonist, cells were serum starved overnight. Increasing concentrations of test compounds were added in OptiMEM medium to the cells. The incubation was continued at 37° C. in CO2 incubator for 4 hours. Medium was removed and cells were washed with phosphate buffered saline. The cells were lysed and luciferase activity was measured in a Luminometer. Luminescence units were plotted against the compound concentrations using Graphpad software. EC50 values of the compounds were defined as the concentration required in stimulating the luciferase activity by 50%.

[2] = Rodent brain penetration study; assay type: in vivo, Male Wistar rats; settings: male, Wistar, rat, 3 mg/kg, oral (gavage), read-out: Single dose Brain Penetration (Cb/Cp)
Procedure: Male Wistar rats (225±25 grams) were used as experimental animals. Three animals were housed in each cage. Animals were given water and food ad libitum throughout the experiment and maintained on a 12 hours light/dark cycle. Brain penetration was determined in discrete manner in rats. One day prior to dosing day, male wistar rats (225-250 grams) were acclimatized. After acclimatization the rats were grouped according to their weight. In each group, 3 animals were kept in individual cage and allowed free access to food and water. At each time point (0.50, 1 and 2 hours) n=3 animals were used. The test compounds were suitably preformulated and administered orally at (free base equivalent) 3 mg/kg. Blood samples were removed via, cardiac puncture by using isoflurane anesthesia. The animals were sacrificed to collect brain tissue. Plasma was separated and brain samples were homogenized and stored frozen at −20° C. until analysis. The concentrations of the test compounds in plasma and brain were determined using LC-MS/MS method. The test compounds were quantified in plasma and brain homogenate by qualified LC-MS/MS method using suitable extraction technique. The test compounds were quantified in the calibration range of 1-500 ng/mL in plasma and brain homogenate. Study samples were analyzed using calibration samples in the batch and quality control samples spread across the batch. Extent of brain-plasma ratio was calculated (Cb/Cp).

[3] = Rodent pharmacokinetic study; assay type: in vivo, Male wistar rats; settings: male, Wistar, plasma, rat
Procedure: Male wistar rats (225±25 grams) were used as experimental animals. Three to five animals were housed in each cage. Two days prior to dosing day, male wistar rats (225-250 grams) were anesthetized with isoflurane for surgical placement of jugular vein catheter. Animals were fasted overnight before oral dosing (p.o) and food pellets were allowed 2 hours post dosing, whereas during intravenous dosing food and water were provided as ad libitum. Three rats were dosed with test compounds (3 mg/kg) orally and intravenously (1 mg/kg).
At each time point blood was collected through jugular vein and immediately replenish with an equivalent volume of normal saline from freely moving rats. Collected blood was transferred into a labeled eppendr off containing 10 μL of heparin as anticoagulant. Typically blood samples were collected as following time points: Pre dose, 0.08 (only i.v.), 0.25, 0.5, 1, 2, 4, 6, 8, and 24 hours post dose-(n=3). Blood was centrifuged at 4000 rpm for 10 minutes. Plasma was prepared and stored frozen at −20° C. until analysis. The concentrations of the test compounds were quantified in plasma by qualified LC-MS/MS method using suitable extraction technique. The test compounds were quantified in the calibration range around 2-2000 ng/mL in plasma. Study samples were analyzed using calibration samples in the batch and quality control samples spread across the batch.
Pharmacokinetic parameters Cmax, Tmax, AUCt, T1/2 and Bioavailability were calculated by non-compartmental model using standard non-compartmental model by using WinNonLin 5.0.1 or Phoenix WinNonlin 6.2 version Software package.

[4] = Object recognition task model; assay type: in vivo, Male Wistar rats; settings: 3 mg/kg, p.o.
Procedure: The cognition enhancing properties of compounds of this invention were estimated by using this model.
Male Wistar rats (230-280 grams) were used as experimental animals. Four animals were housed in each cage. Animals were kept on 20% food deprivation before one day and given water ad libitum throughout the experiment and maintained on a 12 hours light/dark cycle. Also the rats were habituated to individual arenas for 1 hour in the absence of any objects.
One group of 12 rats received vehicle (1 mL/Kg) orally and another set of animals received compound of the formula (I) either orally or i.p., before one hour of the familiar (T1) and choice trial (T2).
The experiment was carried out in a 50×50×50 cm open field made up of acrylic. In the familiarization phase, (T1), the rats were placed individually in the open field for 3 minutes, in which two identical objects (plastic bottles, 12.5 cm height×5.5 cm diameter) covered in yellow masking tape alone (a1 and a2) were positioned in two adjacent corners, 10 cms from the walls. After 24 hours of the (T1) trial for long-term memory test, the same rats were placed in the same arena as they were placed in T1 trial. Choice phase (T2) rats were allowed to explore the open field for 3 minutes in presence of one familiar object (a3) and one novel object (b) (Amber color glass bottle, 12 cm high and 5 cm in diameter). Familiar objects presented similar textures, colors and sizes. During the T1 and T2 trial, explorations of each object (defined as sniffing, licking, chewing or having moving vibrissae whilst directing the nose towards the object at a distance of less than 1 cm) were recorded separately by stopwatch. Sitting on an object was not regarded as exploratory activity, however, it was rarely observed.
T1 is the total time spent exploring the familiar objects (a1+a2).
T2 is the total time spent exploring the familiar object and novel object (a3+b).
The object recognition test was performed as described by Behaviour Brain Research, 31 (1988), 47-59.

T1 sequence (Q13639 whole entry): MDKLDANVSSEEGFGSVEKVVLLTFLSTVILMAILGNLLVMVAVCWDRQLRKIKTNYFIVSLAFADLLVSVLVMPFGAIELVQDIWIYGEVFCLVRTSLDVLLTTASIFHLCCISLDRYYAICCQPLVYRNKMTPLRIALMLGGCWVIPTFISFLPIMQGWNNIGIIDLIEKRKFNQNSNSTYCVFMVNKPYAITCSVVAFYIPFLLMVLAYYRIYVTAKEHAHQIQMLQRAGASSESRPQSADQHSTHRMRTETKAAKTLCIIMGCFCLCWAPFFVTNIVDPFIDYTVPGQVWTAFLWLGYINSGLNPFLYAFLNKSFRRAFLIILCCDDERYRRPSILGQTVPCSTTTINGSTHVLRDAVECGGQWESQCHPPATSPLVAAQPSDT

Row | SMILES | EC50 [1] | also measured
1 | CC(C)(O)CN1CCC(F)(CNC(=O)c2cc(Br)c(N)c3c2OCCC3)CC1.O=C(O)C(O)C(O)C(=O)O [Example 48, 5-Amino-6-bromo-N-{[4-fluoro-1-(2-hydroxy-2-methylpropyl)-4-piperidinyl]methyl}chroman-8-carboxamide L(+)-tartarate] |  | Kp [2]: 1 ± 0.16; AUC(0-t) ([3]; 1 mg/kg, intravenous (bolus)): 211 ± 41 ng·h/mL; half-life ([3]; 1 mg/kg, intravenous (bolus)): 1.5 h; bioavailability ([3]; 3 mg/kg oral vs 1 mg/kg intravenous): 35 ± 5%; AUC(0-t) ([3]; 3 mg/kg, oral (gavage)): 224 ± 33 ng·h/mL; Cmax ([3]; 3 mg/kg, oral (gavage)): 167 ± 20 ng/mL; Tmax ([3]; 3 mg/kg, oral (gavage)): 0.31 h; half-life ([3]; 3 mg/kg, oral (gavage)): 1 h; Exploration time mean ± S.E.M, Familiar object [4]: 7.02 ± 0.76 s; Exploration time mean ± S.E.M, Novel object [4]: 13.80 ± 1.74 s; Inference [4]: Active
2 | CC(C)(O)CN1CCC(CNC(=O)c2cc(Cl)c(N)c3ccoc23)CC1 [Example 49, 4-Amino-5-chloro-N-{[1-(2-hydroxy-2-methylpropyl)-4-piperidinyl]methyl}benzofuran-7-carboxamide L(+)-tartarate] | 1.1 to 5 nM | 
3 | CC(C)(O)CN1CC2C(CNC(=O)c3cc(Cl)c(N)c4ccoc34)C2C1 (stereo not drawn) [Example 51, 4-Amino-5-chloro-N-{[3-(2-hydroxy-2-methylpropyl)-3-azabicyclo[3.1.0]hex-6-yl]methyl}benzofuran-7-carboxamide L(+)-tartarate] | 10.1 to 20 nM | 
4 | Cc1cc2c(N)c(Cl)cc(C(=O)NCC3C4CN(CC(C)(C)O)CC34)c2o1 (stereo not drawn) [Example 54, 4-Amino-5-chloro-2-methyl-N-{[3-(2-hydroxy-2-methylpropyl)-3-azabicyclo[3.1.0]hex-6-yl]methyl}benzofuran-7-carboxamide] | 5.1 to 10 nM | 
5 | CC(C)(F)CN1CCC(CNC(=O)c2cc(Cl)c(N)c3c2OCCC3)CC1 [Example 55, 5-Amino-6-chloro-N-{[1-(2-fluoro-2-methylpropyl)-4-piperidinyl]methyl}chroman-8-carboxamide] | ≤ 1 nM | 
6 | CC(C)(F)CN1CCC(F)(CNC(=O)c2cc(Cl)c(N)c3c2OCCC3)CC1 [Example 57, 5-Amino-6-chloro-N-{[1-(2-fluoro-2-methylpropyl)-4-fluoro-4-piperidinyl]methyl}chroman-8-carboxamide L(+)-tartarate] | 5.1 to 10 nM | 
7 | CC(C)(CO)CN1CC2C(CNC(=O)c3cc(Cl)c(N)c4c3OCCC4)C2C1 (stereo not drawn) [Example 58, 5-Amino-6-chloro-N-{[3-(3-hydroxy-2,2-dimethylpropyl)-3-azabicyclo[3.1.0]hex-6-yl]methyl}chroman-8-carboxamide L(+)-tartarate] | ≤ 1 nM | 
8 | Cc1cc2c(N)c(Cl)cc(C(=O)NCC3CCN(CC(C)(C)CO)CC3)c2o1 [Example 59, 4-Amino-5-chloro-2-methyl-N-{[1-(3-hydroxy-2,2-dimethylpropyl)-4-piperidinyl]methyl}benzofuran-7-carboxamide] | ≤ 1 nM | 
9 | COCCCN1CC2C(CNC(=O)c3cc(Cl)c(N)c4c3OCC4)C2C1 (stereo not drawn) [Example 62, 4-Amino-5-chloro-N-{[3-(3-methoxypropyl)-3-azabicyclo[3.1.0]hex-6-yl]methyl}-2,3-dihydrobenzofuran-7-carboxamide oxalate] | 1.1 to 5 nM | 
10 | COCCCN1CC2C(CNC(=O)c3cc(Br)c(N)c4c3OCC4)C2C1 (stereo not drawn) [Example 65, 4-Amino-5-bromo-N-{[3-(3-methoxypropyl)-3-azabicyclo[3.1.0]hex-6-yl]methyl}-2,3-dihydrobenzofuran-7-carboxamide oxalate] | 10.1 to 20 nM | 
11 | Nc1c(Cl)cc(C(=O)NCC2CCN(CCF)CC2)c2c1CCCO2 [Example 66, 5-Amino-6-chloro-N-{[1-(2-fluoroethyl)-4-piperidinyl]methyl}chroman-8-carboxamide] | 1.1 to 5 nM | 

The next lines start with results.

Row | EC50 [1] | SMILES | also measured
12 | 1.1 to 5 nM | CC(C)(O)CN1CCC(F)(CNC(=O)c2cc(Cl)c(N)c3c2OCCC3)CC1 [Example 43, 5-Amino-6-chloro-N-{[4-fluoro-1-(2-hydroxy-2-methylpropyl)-4-piperidinyl]methyl}chroman-8-carboxamide] | 
13 | ≤ 1 nM | CC(C)(O)CN1CCC(CNC(=O)c2cc(Br)c(N)c3c2OCCC3)CC1 [Example 46, 5-Amino-6-bromo-N-{[1-(2-hydroxy-2-methylpropyl)-4-piperidinyl]methyl}chroman-8-carboxamide L(+)-tartarate] | 
14 | ≤ 1 nM | Cc1cc2c(N)c(Cl)cc(C(=O)NCC3CCN(CC(C)(C)O)CC3)c2o1 [Example 52, 4-Amino-5-chloro-2-methyl-N-{[1-(2-hydroxy-2-methylpropyl)-4-piperidinyl]methyl}benzofuran-7-carboxamide L(+)-tartarate] | 
15 | ≤ 1 nM and 1.1 to 5 nM | COCC(C)(C)CN1CC2C(CNC(=O)c3cc(Cl)c(N)c4c3OCCC4)C2C1 (stereo not drawn) [Example 60, 5-Amino-6-chloro-N-{[3-(3-methoxy-2,2-dimethylpropyl)-3-azabicyclo[3.1.0]hex-6-yl]methyl}chroman-8-carboxamide] | 
16 | 5.1 to 10 nM | COCCCN1CC2C(CNC(=O)c3cc(Cl)c(N)c4ccoc34)C2C1 (stereo not drawn) [Example 63, 4-Amino-5-chloro-N-{[3-(3-methoxypropyl)-3-azabicyclo[3.1.0]hex-6-yl]methyl}benzofuran-7-carboxamide hydrochloride] | 
17 | 1.1 to 5 nM | COCCCN1CC2C(CNC(=O)c3cc(Cl)c(N)c4cc(C)oc34)C2C1 (stereo not drawn) [Example 64, 4-Amino-5-chloro-2-methyl-N-{[3-(3-methoxypropyl)-3-azabicyclo[3.1.0]hex-6-yl]methyl}benzofuran-7-carboxamide hydrochloride] | 
